Laboratory results reported in the NIST ThermoML archive (doi:10.1016/j.fluid.2011.05.017).

Assay: wn = mass fraction of the nth substance listed
Conditions: 101 kPa, Liquid; for viscosity: Capillary tube (Ostwald / Ubbelohde) method; for mass density: Vibrating tube method

CCC(C)O (stereo not drawn) [butan-2-ol] + O
Conditions | mass density, 298.15 K [kg/m3] | mass density, 303.15 K [kg/m3] | mass density, 308.15 K [kg/m3] | viscosity, 298.15 K [mPa·s] | viscosity, 303.15 K [mPa·s] | viscosity, 308.15 K [mPa·s]
w1 = 0.7 | 863.8 | 859.6 | 855.1 | 3.342 | 2.795 | 2.377
w1 = 0.8 | 843.6 | 839.2 | 834.8 | 3.098 | 2.608 | 2.216
w1 = 0.9 | 822.8 | 818.8 | 813.5 | 2.812 | 2.375 | 2.029
